The experiment has as its system trephine defect (bony healing). The experiment can be described thus: Bony healing of trephine defect after systemic treatment. The experiment is classed as in vivo, mice. To be noted: systemic administration.

This note sets out measurements from patent US20150044296A1, “COMBINATION THERAPY TO IMPROVE JOINT, TENDON, AND LIGAMENT HEALING” (priority 2012, published 2015).

Take `CC[C@H](C)[C@H](NC(=O)[C@H](CCC(=O)O)NC(=O)[C@H](CO)NC(=O)[C@@H](NC(=O)[C@@H](N)CO)C(C)C)C(=O)N[C@@H](CCC(N)=O)C(=O)N[C@@H](CC(C)C)C(=O)N[C@@H](CCSC)C(=O)N[C@@H](Cc1cnc[nH]1)C(=O)N[C@@H](CC(N)=O)C(=O)N[C@@H](CC(C)C)C(=O)NCC(=O)N[C@@H](CCCCN)C(=O)N[C@@H](Cc1cnc[nH]1)C(=O)N[C@@H](CC(C)C)C(=O)N[C@@H](CC(N)=O)C(=O)N[C@@H](CO)C(=O)N[C@@H](CCSC)C(=O)N[C@@H](CCC(=O)O)C(=O)N[C@@H](CCCN=C(N)N)C(=O)N[C@H](C(=O)N[C@@H](CCC(=O)O)C(=O)N[C@@H](Cc1c[nH]c2ccccc12)C(=O)N[C@@H](CC(C)C)C(=O)N[C@@H](CCCN=C(N)N)C(=O)N[C@@H](CCCCN)C(=O)N[C@@H](CCCCN)C(=O)N[C@@H](CC(C)C)C(=O)N[C@@H](CCC(N)=O)C(=O)N[C@@H](CC(=O)O)C(=O)N[C@H](C(=O)N[C@@H](Cc1cnc[nH]1)C(=O)N[C@@H](CC(N)=O)C(=O)N[C@@H](Cc1ccccc1)C(=O)O)C(C)C)C(C)C` [PTH]: the “bony ingrowth / bony regeneration” value was 56%.

On to `c1cc(CN2CCCNCCNCCCNCC2)ccc1CN1CCCNCCNCCCNCC1` [AMD3100], for which the “bony ingrowth / bony regeneration” value was determined as 59.7%.
